Test results as given in publication PMC5570892, “Indole-based perenosins as highly potent HCl transporters and potential anti-cancer agents” (Scientific Reports, 2017).
Several values for one entry are separate records, joined by “and”; a condition that tells them apart may be missing. Equal entries are not always repeated. Entries after “also recorded” stand apart in the source; their conditions may differ.

Test: Cl^−/NO3^− antiport assay by chloride ISE
Assay type: biochemical
Settings: for chloride transport at pH 6.5: phosphate buffer, compared to pH 7.2; for EC50 Cl^−/NO3^− at pH 7.2 (by ISE): EC50 at 270 s, carrier:lipid molar percent, POPC vesicles; for chloride efflux at pH 4.5: citrate buffer, within 5 minutes; for chloride transport at pH 7.2 (Hill analysis feasibility): Cl^−/NO3^− ISE assay, dose response
Method: The chloride transport properties of the new perenosins 2–8 were compared to 1d using the chloride/nitrate exchange assay monitored by a chloride ion selective electrode (ISE). Typically, unilamellar vesicles were prepared from POPC, containing an intravesicular NaCl solution (489 mM with 5 mM phosphate buffer at pH 7.2) suspended in a NaNO3 solution (489 mM with 5 mM phosphate buffer at pH 7.2). All perenosins were added as a DMSO solution and the rate of chloride efflux was monitored by the chloride ISE. At the end of the experiment (300 s), detergent was added to lyse the vesicles and obtain the 100% chloride efflux reading. Dose response studies of 1d and 2–8 were performed to allow Hill analysis, giving the EC50 values and Hill coefficients as shown in Table 2.
The external pH of cancer cells (pH 6.7[53]) is slightly acidic compared to healthy cells (pH 7.2–7.5[54]). […] To investigate the effect of pH on the chloride transport capabilities unilamellar vesicles were loaded with NaCl (489 mM) and suspended in NaNO3 (489 mM), and the internal and external solutions were buffered to pH 4.5, 6.5, 7.2 and 10 using various buffers (more detail can be found in the Supplementary Information). Compounds 1d and 2–8 were then tested in a single point screen at 0.1 mol% loading (Fig. 5). At pH 4.5 the perenosins exist predominantly as the active protonated species and so all compounds show moderate to high chloride transport properties, whereas, there is no chloride transport observed at pH 10 (see Supplementary Information for results).
S10. Anion Transport Studies
S10.1. General Procedure for the ISE Assay
Unilamellar vesicles were prepared using previously reported literature procedures7-9. A lipid film of POPC (1-palmitoyl-2-oleoyl-sn-glycero-3-phosphocholine) or POPC:cholesterol (7:3 molar ratio) was prepared from a chloroform solution under reduced pressure and then dried under vacuum for 4 or more hours. The lipid film was rehydrated by vortexing with an internal solution of buffered metal chloride salt (usually 489 mM MCl). The lipid suspension was then subjected to 9 freeze-thaw cycles and left to rest at room temperature for 30 minutes. After this, the suspension was extruded 25 times through a 200 nm polycarbonate membrane resulting in unilamellar vesicles of a mean diameter of 200 nm. The large unilamellar vesicles were dialysed in the corresponding external solution for a minimum of 2 hours to remove any unencapsulated metal salts. The lipid solution obtained after dialysis was diluted to a standard volume (usually 10 mL) with the external buffered solution to obtain a lipid stock of known concentration.
Internal and external solutions vary for each experiment and are detailed for each. Experiments conducted at different pHs required different buffers (citrate buffer for pH 4.5; phosphate buffer for pH 6.5 and pH 7.2; and ethanolamine buffer for pH 10) however, a constant buffer concentration (5 mM) and total ionic strength (500 mM) was maintained.
The lipid stock was diluted with the external buffer solution to a standard volume (5 mL), to afford a solution with a lipid concentration of 1 mM. The compounds were added as a DMSO solution (10 μL) at the start of the experiment and the resulting chloride efflux was monitored using a chloride selective electrode over 5 minutes. After this time, detergent (50 μL of Triton X-100 (11 w%) in H2O:DMSO (7:1 v/v)) was added to lyse the vesicles and after 7 minutes a final chloride efflux reading was taken. This value represented 100 % chloride efflux and was used to calibrate the other […]
Compared to pH 7.2, at pH 6.5 compounds 1d and 2-6 show increased transport ability with 2, 4 and 5 showing very similar, high transport capabilities and 1d, 3 and 6 not transporting to as great an […]
S10.3. Cl-/NO3- ISE Assay - Hill Analysis
The Cl-/NO3- exchange assay was performed as described above testing the compounds at varying […]
carrier concentration (mol%, with respect to lipid). The data points were then fitted to the Hill […]

| SMILES | chloride efflux in POPC vesicles at pH 7.2 (0.1 mol% loading) [%] | chloride transport at pH 6.5 (0.1 mol% loading) | EC50 Cl^−/NO3^− at pH 7.2 (by ISE) | chloride efflux at pH 4.5 (0.1 mol% loading) | chloride transport at pH 7.2 (Hill analysis feasibility) | maximum chloride efflux (after 300 s, loading of 10 mol%, pH 7.2) [%] |
| --- | --- | --- | --- | --- | --- | --- |
| CCCCCc1cc2cc(C)cc(/N=C/c3[nH]c(C)cc3C)c2[nH]1 [Perenosin 2] | 100 | high | 0.0043 mol% |  |  |  |
| CCCCCc1cc2cc(C)cc(/N=C/c3[nH]c4ccccc4c3C)c2[nH]1 [Perenosin 8] |  | inactive |  | 35% | too weak to perform Hill analysis; also recorded: weak transport activity |  |
| CCCc1cc2cc(C)cc(/N=C/c3[nH]c(C)cc3C)c2[nH]1 [Perenosin 4] |  | high | 0.0111 mol% |  |  |  |
| CCCCCc1cc(/N=C/c2[nH]c3ccccc3c2C)c2[nH]ccc2c1 [Perenosin 7] |  | inactive |  | inactive | too weak to perform Hill analysis; also recorded: weak transport activity |  |
| CCCCCc1cc2cc(C(F)(F)F)cc(/N=C/c3[nH]c(C)cc3C)c2[nH]1 [Perenosin 3] |  |  |  |  | too weak to perform Hill analysis | 35 |
| CCCCCc1cc2cc(C)cc(/N=C/c3[nH]c(C)c(CCCCC)c3C)c2[nH]1 [Perenosin 6] |  |  | 0.0852 mol% |  |  |  |
| CCCCCc1cc(/N=C/c2[nH]c(C)cc2C)c2[nH]ccc2c1 [Perenosin 1d] |  |  | 0.122 mol% and 0.1220 mol% |  |  |  |
| CCCCCc1c(C)[nH]c(/C=N/c2cc(C)cc3cc[nH]c23)c1C [Perenosin 5] |  | high | 0.0227 mol% |  |  |  |
